From US20170202878A1, “Method for Preventing or Treating a Protein Aggregation Disease” (Queen Mary University of London, priority 2014, published 2017)

How the values were obtained:
[1] = tested on: RNAse-aggregated proteins from human neurons; test: RNA-mediated re-folding of RNAse-aggregated proteins; format: biochemical; conditions: for protein solubilising effect of G-quadruple-forming and non-forming oligos: RNAse aggregated proteins from human neurons, aggregated proteins quantified
Description: Proteins were isolated from neuronal lysate by RNAse A/T1 treatment and centrifugation. Pelleted proteins were dissolved in 50 μl of denaturation buffer (20 mM Tris-HCl pH 7.5, 6 M Guanidine hydrochloride, 1% Triton X-100, 20 mM DTT) and sonicated for 5 min at room temperature. […] Dialysis was performed against 600 ml PBS buffer at 4° C. overnight after which the PBS was replaced with fresh PBS (400 ml) and the container placed in a water bath and kept at 37° C. for 1 h. The dialysed samples were transferred to 1.5 ml tubes and the volume adjusted to 100-200 μl with PBS. 7.5-10% of this was taken as Input. Precipitated proteins (Pel 1) were pelleted by centrifugation at 21.000×g for 10 min at +4° C., washed twice in RIPA buffer and processed for SDS-PAGE as before. 7.5-10% of the supernatants was saved (Sup 1) and the remaining volume was either divided into two new tubes supplemented with 0.5 μl vehicle or 0.5 μl RNAse A/T1 or the whole sample placed in one tube and treated with 0.5 μl RNAse A/T1. All samples were incubated at 37° C. for one hour and centrifuged as before. Pelleted proteins (P2) were washed as before and dissolved in SDS/Urea and sonicated. Equal volumes of each fraction were separated on SDS-PAGE gels and then either stained with coomassie or transferred to membranes for western blot analysis. RNA was isolated from cell lysates and purified ribosomes with Trizol LS (Life Technologies) according to the manufacturer's instructions. Ribosomes were isolated from Jurkat T-cells. RNA depleted for rRNA was isolated from the upper two thirds of the supernatant (after pelleting of ribosomes and five times dilution in water) with acid phenol (Life Technologies) followed by EtOH precipitation. RNA from intact cells was isolated with Isol-RNA Lysis Reagent (5 PRIME), according to the manufacturer's instructions. All RNA samples were dissolved in TE (10 mM Tris-HCl pH 8.0, 1 mM EDTA). RNA was analysed by 1.5% agarose or 6% PAGE/8M Urea gel electrophoresis and visualised with Ethidium Bromide. […]

[2] = tested on: cell or tissue lysate treated with RNAse A/T1; test: Sodium orthovanadate: impact on RNAse-induced protein aggregation
Description: Cell or tissue lysate was prepared as described above. Lysate (200 μg at 2 μg/ul) is then treated with a mixture of RNAse A and T1 (A/T1), and incubated with increasing concentrations of Sodium Orthovanadate for one hour at 37° C. Aggregated proteins were isolated by centrifugation (21.000×g) at 4° C. for 20 min, washed twice in 500 μl RIPA buffer and then dissolved in 12 μl 6M Guanidine Hydrochloride, 20 mM Tris-HCl pH 7.5 by sonication for 5 min at room temperature. The amount of protein in 5 μl of this solution was then determined by using the BCA Kit (Thermo Scientific) according to the manufacturer's protocol. Data were expressed in arbitrary units (AU) as a fraction of the amount aggregated proteins (P1)/the amount of protein in the Input, and represent mean±s.d, n=2. […] The experiment was repeated with 50 μM SO and increasing concentrations of RNAse A/T1.

[3] = tested on: aggregated proteins from Jurkat T-cells; test: Two-step refolding of proteins with small molecules or synthetic DNA/RNA; conditions: increasing concentrations
[4] = tested on: lysate from mouse cortex; test: Ribonucleoside vanadyl: impact on protein aggregation; format: biochemical; conditions: 10 mM, 1 hour at 37° C., coomassie SDS-PAGE
[5] = tested on: amyloid-β, tau (MAPT), α-synuclein (SNCA), TARDBP (TDP-43), FUS, HTT, PrP, HNRNPA1, actin, NF-H in human neuronal lysates
[6] = tested on: Huntingtin (HTT), FUS and TARDBP in Jurkat cell lysates; format: biochemical, human; conditions: 15 min treatment, then 1 hour at 37° C.

“No 4G 1129-69: oligo with same nucleotides as 18S 1129 in an order not predicted to form G-quadruples (DNA TTAAGGGCATCTGATGCGGCGCGTGACGCGGCGCTAAGTG; DNA, backbone not given here)” was tested, and the “protein solubilising effect of G-quadruple-forming and non-forming oligos” value [1] was “much less efficient”.

With `[Na+].[Na+].[Na+].[O]=[V]([O-])([O-])[O-]` [Sodium orthovanadate] the “background protein aggregation in lysate” value [2] was “prevents any background protein aggregation”, the “inhibition of RNAse mediated protein aggregation” value ([2]; added to cell or tissue lysate together with RNAses, 1 hour at 37° C., e.g. TDP-43 and huntingtin) was “completely inhibit aggregation of the proteins” and the “prevention of protein aggregation after refolding (BCA assay)” value [3] was “can mimic RNA/DNA in preventing protein aggregation after refolding”.

In the case of Ribonucleoside vanadyl, the “protein aggregation in lysate in the absence of exogenous RNAse” value [4] is reported as “causes substantial protein aggregation” and the “protein aggregation in lysate in the absence of exogenous RNAse” value ([4]; listed as Riobonucleoside vanadyl (VA)) is reported as “causes protein aggregation”.

In the case of heparin, the “re-folding / solubilisation of RNAse-aggregated proteins (global protein profile)” value ([1]; denatured in 6M guanidine hydrochloride, dialysed, same amount in weight of nucleic acid or heparin) is reported as “neither yeast tRNA nor heparin could substitute for the solubilising capacity of total human RNA”.

In the case of “18S 1129-69: predicted G4-forming ssDNA oligo derived from human 18S ribosomal RNA, 40 nt”, the “protein solubilising effect of G-quadruple-forming and non-forming oligos” value [1] is reported as “can solubilise the proteins”.

B1: RNase T1: ribonuclease cleaving single-stranded RNA after G (protein, UniProt P00651 27-130, looked up)
Guanyl-specific ribonuclease …: ACDYTCGSNCYSSSDVSTAQAAGYQLHEDGETVGSNSYPHKYNNYEGFDFSVSSPYYEWPILSSGDVYSGGSPGADRVVFNENNQLAGVITHTGASGNNFVECT
For B1, the “proteins most efficiently precipitated by the RNase (western blot)” value [5] was “FUS”.

B2: immobilised RNAse A: biotinylated RNAse A coupled to magnetic strepavidine beads (protein, UniProt P61823 27-150, looked up)
Ribonuclease pancreatic: KETAAAKFERQHMDSSTSAASSSNYCNQMMKSRNLTKDRCKPVNTFVHESLADVQAVCSQKNVACKNGQTNCYQSYSTMSITDCRETGSSKYPNCAYKTTQANKHIIVACEGNPYVPVHFDASV
modifications: biotinylated, coupled to streptavidin magnetic beads
B2 was tested, and the “aggregation of HTT, FUS and TARDBP after mixing 10% treated lysate with non-treated lysate (western blot)” value [6] was “increase in aggregation”.

B3: RNase A: ribonuclease cleaving single-stranded RNA after C and U, from Sigma (protein)
chain: KETAAAKFERQHMDSSTSAASSSNYCNQMMKSRNLTKDRCKPVNTFVHESLADVQAVCSQKNVACKNGQTNCYQSYSTMSITDCRETGSSKYPNCAYKTTQANKHIIVACEGNPYVPVHFDASV
B3 was tested, and the “proteins most efficiently precipitated by the RNase (western blot)” value [5] was “TARDBP, HTT and PrP”.
